Results as given in publication PMC8152350, “High cytotoxicity of betulin towards fish and murine fibroblasts: Is betulin safe for nonneoplastic cells?” (BMC Veterinary Research, 2021).
≈ marks a conversion by molar mass, not a printed value.

Tests used:
[1] = MTT assay (mitochondrial activity), fish fibroblasts; assay type: cell-based, bluegill; conditions: bluegill, BF-2 caudal trunk fibroblasts, mean ± SD, n = 3
Procedure: (§1) BF-2 (ATCC CCL-91) bluegill caudal trunk fibroblasts were grown in minimum essential medium (Eagle, EBSS) supplemented with 1 % nonessential amino acids (NEAAs), 10 % foetal bovine serum and 1 % antibiotic-antimycotic solution at 23 °C in a humidified atmosphere with 5 % CO2.
(§2) All experiments were repeated three times.

BF-2 cells [2] = experiment: as above; assay type: cell-based, bluegill; conditions: fish cells
Procedure: as §1, §2

[3] = NRU assay (lysosomal membrane integrity), fish fibroblasts; assay type: cell-based, bluegill; conditions: bluegill, BF-2 caudal trunk fibroblasts, mean ± SD, n = 3
Procedure: as §1, §2
(§3) The NRU assay evaluates lysosomal membrane integrity. It measures neutral red dye accumulation within lysosomes of viable cells.
(§4) The NRU assay was performed using a commercially available kit (TOX4) (Sigma-Aldrich, Poland) according to the manufacturer’s protocol. The full description of the test procedure was also provided in a published article.

BF-2 cells [4] = experiment: as above; assay type: cell-based, bluegill; conditions: BF-2, regardless of the time of incubation
Procedure: as §1, §2, §3, §4

[5] = SRB assay (total cellular protein content), fish fibroblasts; assay type: cell-based, bluegill; conditions: bluegill, BF-2 caudal trunk fibroblasts, n = 3
Procedure: as §1, §2
(§5) The sulforhodamine B colorimetric assay measures the cellular protein content, and the assay results are proportional to the number of cells.
(§6) The SRB assay was performed using a commercially available kit (TOX6) (Sigma-Aldrich, Poland) according to the manufacturer’s protocol. In this assay, SRB binds to protein components of trichloroacetic acid-fixed cells, and the protein-bound dye is extracted with Tris. The results obtained are presented as the percentage of the total cellular protein content in control (nontreated) cells.

BF-2 cells [6] = experiment: as above; assay type: cell-based, bluegill; conditions: BF-2
Procedure: as §1, §2, §5, §6

NIH/3T3 cells = experiment: LDH leakage assay (cellular membrane integrity), murine fibroblasts; assay type: cell-based, mouse; conditions: NIH/3T3, 24 h
Procedure: as §2
(§7) The LDH assay measures leakage of the stable cytosolic enzyme lactate dehydrogenase into the culture medium, which is an indicator of irreversible cell membrane damage and cell death.
(§8) The LDH assay was performed using a commercially available kit (TOX7) (Sigma-Aldrich, Poland) according to the manufacturer’s protocol. The full description of the test procedure was also reported previously. The results obtained are reported as the percentage of LDH leakage to the culture media in control (nontreated) cells.

BF-2 cells [7] = experiment: LDH leakage assay (cellular membrane integrity), fish fibroblasts; assay type: cell-based, bluegill; conditions: BF-2, 24 h
Procedure: as §1, §2, §7, §8

[8] = tested on: veterinary pathogens, both bacterial and viral; experiment: Antimicrobial activity towards veterinary pathogens (data not shown)
[9] = tested on: B16 cells (B164A5 and B16F10); set-up: method as in PMID 25756279; conditions: B16 melanoma cells; cited from earlier work
[10] = tested on: murine fibroblasts (Balb 3T3 line); set-up: method as in PMID 23595090; conditions: Balb 3T3, incubation time not given; cited from earlier work
[11] = tested on: human lung fibroblasts (WI 38); set-up: method as in PMID 12697374; conditions: WI 38, trypan blue exclusion, 72 h, cited from earlier work
[12] = tested on: human skin fibroblasts (WS1); set-up: method as in PMID 16787747; conditions: WS1, resazurin reduction test, 48 h, cited from earlier work
HL60 = tested on: HL60; set-up: method as in PMID 12697374; conditions: HL60 leukaemia; read-out: IC50 of betulin; cited from earlier work
K562 = tested on: K562; set-up: method as in PMID 12697374; conditions: K562 leukaemia; read-out: IC50 of betulin; cited from earlier work
SK-MEL-28 = tested on: SK-MEL-28; set-up: method as in PMID 12697374; conditions: SK-MEL-28 melanoma; read-out: IC50 of betulin; cited from earlier work
DLD-1 = tested on: DLD-1; set-up: method as in PMID 16787747; conditions: read-out: IC50 of betulin; cited from earlier work
B16-F1 (mouse melanoma) = tested on: B16-F1 (mouse melanoma); set-up: method as in PMID 16787747; conditions: read-out: IC50 of betulin; cited from earlier work
MCF-7 (breast cancer) = tested on: MCF-7 (breast cancer); set-up: method as in PMID 22627971, PMID 23379693; conditions: MCF-7, 20 µM; cited from earlier work
[13] = tested on: SW707 (colorectal adenocarcinoma); set-up: method as in PMID 23595090; conditions: SW707, SRB assay; cited from earlier work
P388 (murine leukaemia) = tested on: P388 (murine leukaemia); set-up: method as in PMID 23595090; conditions: P388, MTT assay; cited from earlier work
porcine chondrocytes [14] = conditions: cited from earlier work
porcine chondrocytes [15] = conditions: cited from earlier work; remark: listed apart in the source

Compound: C=C(C)[C@@H]1CC[C@]2(CO)CC[C@]3(C)[C@H](CC[C@@H]4[C@@]5(C)CC[C@H](O)C(C)(C)[C@@H]5CC[C@]43C)[C@@H]12 [betulin, Betulin]
- CC50 at 24 h ([1]; BF-2, 24 h, read-out: CC50 betulin MTT 24 h): 3.39 ± 0.903 µg/mL (≈ 7.67 µM)
- CC50 at 48 h ([1]; BF-2, 48 h, read-out: CC50 betulin MTT 48 h): 2.75 ± 1.05 µg/mL (≈ 6.21 µM)
- CC50 at 72 h ([1]; BF-2, 72 h, read-out: CC50 betulin MTT 72 h): 3.02 ± 1.03 µg/mL (≈ 6.82 µM)
- betulin concentration causing statistically significant decrease in viability (MTT) (BF-2 cells [2]; 24 h): ≥ 1.95 µg/mL
- lower betulin concentration causing considerable decrease in viability (MTT) (BF-2 cells [2]; starting at 48 h of incubation): 0.976 µg/mL
- CC50 at 24 h ([3]; BF-2, 24 h, read-out: CC50 betulin NRU 24 h): 27.6 ± 9.01 µg/mL (≈ 62.4 µM)
- CC50 at 48 h ([3]; BF-2, 48 h, read-out: CC50 betulin NRU 48 h): 16.5 ± 3.6 µg/mL (≈ 37.2 µM)
- CC50 at 72 h ([3]; BF-2, 72 h, read-out: CC50 betulin NRU 72 h): 14.5 ± 3.41 µg/mL (≈ 32.8 µM)
- betulin concentration causing considerable decrease in viability (NRU) (BF-2 cells [4]): at least 15.625 µg/mL
- CC50 at 24 h ([5]; BF-2, 24 h, read-out: CC50 betulin SRB 24 h): > 31.2 µg/mL
- CC50 at 48 h ([5]; BF-2, 48 h, read-out: CC50 betulin SRB 48 h): > 31.2 µg/mL
- CC50 at 72 h ([5]; BF-2, 72 h, read-out: CC50 betulin SRB 72 h): > 31.2 µg/mL
- betulin concentration causing considerable decrease in the number of cells (SRB) (BF-2 cells [6]): at least 15.625 µg/mL
- betulin concentration inducing substantial LDH leakage (NIH/3T3 cells): 7.8 µg/mL
- betulin concentration inducing substantial LDH leakage (BF-2 cells [7]): 7.8 µg/mL
- antimicrobial activity towards tested veterinary pathogens [8]: did not confirm the antimicrobial activity
- betulin concentration from which almost complete lack of cell mitochondrial activity was observed (MTT) [9]: ≥ 15 µM
- IC50 of betulin (SRB) [10]: 47.3 µg/mL
- IC50 of betulin, converted ([11]; conversion of µM value): ca. 6.75 µg/ml
- IC50 ([11]; read-out: IC50 of betulin): 15.2 µM
- IC50 of betulin, converted ([12]; conversion of µM value): ca. 1.6 µg/ml
- IC50 ([12]; read-out: IC50 of betulin): 3.58 µM
- IC50 (HL60): 14.7 µM
- IC50 (K562): 14.5 µM
- IC50 (SK-MEL-28): 16.2 µM
- IC50 (DLD-1): 6.6 µM
- IC50 (B16-F1 (mouse melanoma)): 13.8 µM
- inhibitory activity of betulin (MCF-7 (breast cancer)): 53.2%
- IC50 of betulin [13]: 22.9 µg/mL
- IC50 of betulin (P388 (murine leukaemia)): 5.5 µg/mL
- betulin concentrations not affecting integrity of the cytoplasmic membrane (LDH) (porcine chondrocytes [14]): up to 5.12 µg/mL
- betulin concentration causing considerable decrease in viability (MTT) (porcine chondrocytes [15]): 0.02 µg/mL
